Source: US20160331743A1 (UROGEN PHARMA LTD, priority 2014, published 2016)
“Also recorded” adds a separate entry of the source. Read-outs that look alike come from different tables or passages of the source.

System: carcinoma in situ (CIS) bladder cancer
Settings: imiquimod 0.4%, once weekly for 6 weeks
Text: Patients who have been diagnosed with CIS bladder cancer are potential candidates for the study. The CIS lesion(s) may be primary, secondary, or recurrent, and may be concomitant to a Ta or T1 lesion, provided the Ta or T1 lesion has been fully resected.
After provision of written informed consent, patients are to be evaluated for study eligibility during the screening period within 28 days (4 weeks) before Day 0 (i.e., the first day of study drug administration). Screening evaluations to be performed include medical history, physical examination, vital signs, Eastern Cooperative Oncology Group (ECOG) performance status, hematology and clinical chemistry, and urinalysis with culture. Screening evaluations also include a cystoscopic examination of the bladder with mapping and biopsy/ies of all suspicious areas between Days −28 and −14, followed by a bladder washing for cytology. Patients who have undergone such examinations as part of the diagnostic process outside of the study are not required to undergo the procedures again, provided the examinations occurred within the specified timeframe and positive slides are available for a central pathology and cytology review.
In cases with no visible lesions, at least one biopsy will be taken at the prior positive site and at least 1 additional random biopsy will be taken. Response to treatment will be determined based on urine cytology and tissue sample histology findings.
Patients meeting all of the following criteria were considered eligible for study entry: • 1. Males or female patient is aged ≧18 years. • 2. Patient has pathologically-proven, recurrent, primary, secondary, or concomitant carcinoma in situ disease, defined by having either CIS alone or Ta or T1 with CIS, provided the Ta or T1 lesion(s) has/have been fully resected. In cases with T1 tumor lesions, muscularis propria tissue should be in the resected specimen to confirm that it is tumor-free. • 3. Patient has undergone mapping of the bladder between Days −28 and −14, with at least one biopsy providing pathological confirmation of CIS of the bladder. • 4. Patient has undergone bladder washing for cytology between Days −28 and −1. In patients in whom Ta or T1 lesion(s) were resected, the bladder washing must have occurred after the resection. • 5. Patient has an ECOG performance status 0-2. • 6. Patient has adequate bone marrow, hepatic, and renal function within 4 weeks before Day 0.

Question: How did the “Summary (response to treatment)” value (Patient 1 (BCG refractory, CIS), 50 mL intravesical) turn out when `CC(C)Cn1cnc2c(N)nc3ccccc3c21` [imiquimod, 1-Isobutyl-1H-imidazo[4,5-c]quinolin-4-amine] was run?
Answer: Responder

Question: What about the Histology post treatment (Patient 1 (prior BCG, CIS prior to treatment), 200 mg in 50 mL intravesical, assessed 5 to 7 weeks after last dose) of the same compound?
Answer: no tumor was detecable

Question: What about the “Tumour detectable in follow-up evaluation” value (Patient 1, preliminary results, 50 mL intravesical) of the same compound?
Answer: no tumour was detectable

Question: And the “Summary (response to treatment)” value (Patient 2 (prior chemo, BCG; CIS), 50 mL intravesical, evaluation still ongoing)?
Answer: partial responder

Question: What about the Histology post treatment (Patient 2 (prior chemotherapy, BCG, 9x TURBT, CIS prior to treatment), 50 mL intravesical) of the same compound?
Answer: still CIS detected and CIS

Question: What about the Cytology post treatment (Patient 3 (no prior treatment), 50 mL intravesical) of the same compound?
Answer: no tumor was detected any more

Question: What about the “Summary (response to treatment)” value (Patient 3 (no prior treatment, CIS + papillary cancer), 50 mL intravesical) of the same compound?
Answer: Responder

Question: What about the Histology post treatment (Patient 3 (no prior treatment, CIS + papillary high and low grade cancer prior to treatment), 50 mL intravesical) of the same compound?
Answer: no tumor was detected any more; also recorded: No tumor

Question: And the Histology post treatment (Patient 4 (prior TURB, low grade prior to treatment; had no CIS bladder cancer, excluded from study), 50 mL intravesical)?
Answer: No tumor

Question: What about the Histology post treatment (Patient 5 (prior BCG/Mitomycin, CIS prior to treatment), 50 mL intravesical) of the same compound?
Answer: no tumor was detectable

Question: What about the “Summary (response to treatment)” value (Patient 5 (prior BCG/Mitomycin, CIS), 50 mL intravesical) of the same compound?
Answer: Responder

Question: And the “Number of patients with complete remission of the CIS bladder cancer as assessed by histology” value (of the 5 patients analyzed (patients 1, 3, 4, 5 counted), 50 mL intravesical)?
Answer: Four
